Assay results reported in publication PMC8939339, “Mechanism of Cooperative Degradation of Gum Arabic Arabinogalactan Protein by Bifidobacterium longum Surface Enzymes” (Applied and Environmental Microbiology, 2022).

Molecular target: T1, BlArafE (Bifidobacterium longum, UniProt A0ACD7UMY4)
T1 construct: gene BLLJ_1850; signal peptide (aa 1-26) and C-terminal TM region (aa 1637-1659) removed; printed insert 88 to 4899 (nucleotides); His-tag (printed both as C- and N-terminal; pET23b); E. coli BL21(DE3); 175 kDa
T1 sequence (A0ACD7UMY4 30-1633): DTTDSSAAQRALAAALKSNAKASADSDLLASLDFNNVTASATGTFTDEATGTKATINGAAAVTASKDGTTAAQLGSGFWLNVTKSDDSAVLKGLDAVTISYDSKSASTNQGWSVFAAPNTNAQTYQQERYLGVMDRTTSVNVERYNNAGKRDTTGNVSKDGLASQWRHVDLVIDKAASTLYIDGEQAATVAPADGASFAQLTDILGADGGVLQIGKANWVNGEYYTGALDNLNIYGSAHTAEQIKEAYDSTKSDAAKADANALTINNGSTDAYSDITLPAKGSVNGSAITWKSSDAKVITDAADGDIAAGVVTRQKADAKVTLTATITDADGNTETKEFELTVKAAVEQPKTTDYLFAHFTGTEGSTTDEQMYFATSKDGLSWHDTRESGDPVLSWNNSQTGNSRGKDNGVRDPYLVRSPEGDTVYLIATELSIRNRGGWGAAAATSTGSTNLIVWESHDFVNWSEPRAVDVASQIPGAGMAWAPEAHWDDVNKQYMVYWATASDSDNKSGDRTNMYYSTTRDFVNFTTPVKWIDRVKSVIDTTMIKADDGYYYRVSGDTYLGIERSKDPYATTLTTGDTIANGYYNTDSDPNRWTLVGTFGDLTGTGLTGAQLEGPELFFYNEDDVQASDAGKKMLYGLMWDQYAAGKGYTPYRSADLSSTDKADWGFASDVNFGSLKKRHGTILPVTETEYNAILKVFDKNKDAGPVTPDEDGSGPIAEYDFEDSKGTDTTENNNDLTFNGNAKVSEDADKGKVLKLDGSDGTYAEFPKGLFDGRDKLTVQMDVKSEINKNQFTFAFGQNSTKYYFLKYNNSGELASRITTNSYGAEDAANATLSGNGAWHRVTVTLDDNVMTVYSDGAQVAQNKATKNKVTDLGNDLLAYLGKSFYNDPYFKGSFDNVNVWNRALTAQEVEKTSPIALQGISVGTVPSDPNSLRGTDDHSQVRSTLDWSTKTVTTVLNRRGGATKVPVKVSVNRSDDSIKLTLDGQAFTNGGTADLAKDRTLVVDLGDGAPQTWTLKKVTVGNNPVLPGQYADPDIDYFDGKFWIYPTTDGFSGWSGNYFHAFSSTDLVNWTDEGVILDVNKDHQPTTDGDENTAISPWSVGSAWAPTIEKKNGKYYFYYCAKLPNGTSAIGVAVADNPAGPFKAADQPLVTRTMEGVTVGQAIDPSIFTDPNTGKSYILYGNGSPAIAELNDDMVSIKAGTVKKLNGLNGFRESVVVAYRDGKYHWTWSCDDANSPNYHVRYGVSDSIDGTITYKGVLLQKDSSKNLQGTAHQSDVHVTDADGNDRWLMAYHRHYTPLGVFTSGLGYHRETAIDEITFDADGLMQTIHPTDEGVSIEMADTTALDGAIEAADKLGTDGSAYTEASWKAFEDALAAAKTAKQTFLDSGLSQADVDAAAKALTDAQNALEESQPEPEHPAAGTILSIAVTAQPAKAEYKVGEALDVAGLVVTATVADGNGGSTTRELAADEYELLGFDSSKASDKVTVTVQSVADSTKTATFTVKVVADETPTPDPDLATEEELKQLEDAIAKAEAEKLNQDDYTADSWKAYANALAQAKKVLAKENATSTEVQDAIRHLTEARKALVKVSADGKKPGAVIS
Test: HPAEC-PAD of reaction products
Assay type: biochemical
Conditions: 50 mM sodium acetate pH 6.0, 37 °C, 16 h; both alpha1,3- and alpha1,4-Araf cleaved

## C[C@@H]1O[C@@H](O[C@H]2[C@H](O)[C@@H](O)[C@H](OC[C@H]3O[C@@H](OC[C@H]4OC(O)[C@H](O)[C@@H](O)[C@H]4O)[C@H](O)[C@@H](OC4O[C@@H](CO)C(O)[C@H]4O)[C@H]3OC3O[C@@H](CO)C(O)[C@H]3O)O[C@@H]2C(=O)O)[C@H](O)[C@H](O)[C@H]1O (stereo partly shown) [S5-A]
  HPAEC-PAD of reaction products: BlArafE cleaved S5-A into S4 and L-arabinose
